± gives the uncertainty stated by the source.
Assay: xn = mol fraction of the nth substance listed

CCCOC(=O)CC + c1ccccc1
298.15 K, 101.33 kPa
Settings	viscosity [mPa·s]
x1 = 0.1478	0.583 ± 0.01
x1 = 0.2542	0.583 ± 0.01
x1 = 0.3452	0.586 ± 0.01
x1 = 0.4049	0.588 ± 0.01
x1 = 0.616	0.604 ± 0.011
x1 = 0.7421	0.616 ± 0.011
x1 = 0.8096	0.622 ± 0.011
x1 = 0.878	0.63 ± 0.011
x1 = 0.9369	0.635 ± 0.011

CCC(=O)O + O
viscosity [mPa·s]
Settings	x1 = 0.0263	x1 = 0.0944	x1 = 0.196	x1 = 0.362	x1 = 0.686
293.15 K, 101.33 kPa	1.322 ± 0.013	1.977 ± 0.02	2.601 ± 0.026	–	–
298.15 K, 101 kPa	1.443 ± 0.29	2.821 ± 0.57	3.483 ± 0.7	3.351 ± 0.68	2.816 ± 0.57
308.15 K, 101 kPa	1.08 ± 0.22	1.945 ± 0.39	2.418 ± 0.49	2.393 ± 0.48	2.082 ± 0.42
313.15 K, 101.33 kPa	0.858 ± 0.0086	1.188 ± 0.012	1.552 ± 0.016	–	–
318.15 K, 101 kPa	0.856 ± 0.17	1.434 ± 0.29	1.789 ± 0.36	1.789 ± 0.36	1.592 ± 0.32

Nc1cccc(Cl)c1 + CCCCO
viscosity [mPa·s], 101 kPa
Settings	x1 = 0.0884	x1 = 0.1792	x1 = 0.2723	x1 = 0.368	x1 = 0.4662	x1 = 0.5671	x1 = 0.6708	x1 = 0.7774	x1 = 0.8871
303.15 K	2.47 ± 0.084	2.654 ± 0.09	2.84 ± 0.096	3.03 ± 0.1	3.219 ± 0.11	3.412 ± 0.11	3.607 ± 0.12	3.806 ± 0.13	4.02 ± 0.13
308.15 K	2.198 ± 0.075	2.371 ± 0.081	2.546 ± 0.087	2.72 ± 0.092	2.895 ± 0.098	3.073 ± 0.1	3.253 ± 0.11	3.441 ± 0.11	3.635 ± 0.12
313.15 K	1.966 ± 0.068	2.128 ± 0.073	2.284 ± 0.078	2.441 ± 0.083	2.598 ± 0.088	2.759 ± 0.093	2.923 ± 0.098	3.091 ± 0.1	3.261 ± 0.11
318.15 K	1.761 ± 0.062	1.911 ± 0.066	2.052 ± 0.071	2.19 ± 0.075	2.328 ± 0.08	2.468 ± 0.084	2.61 ± 0.088	2.756 ± 0.093	2.897 ± 0.098

O=C(O)c1ccccc1O + CCCCO
viscosity [mPa·s]
Settings	308.15 K	313.15 K	318.15 K	323.15 K
101 kPa, x1 = 0.14	2.453 ± 0.02	–	–	–
101 kPa, x1 = 0.173	2.656 ± 0.022	–	–	–
101 kPa, x1 = 0.193	2.761 ± 0.023	–	–	–
101.33 kPa, x1 = 0.14	2.453 ± 0.065	2.187 ± 0.058	1.951 ± 0.052	1.736 ± 0.046
101.33 kPa, x1 = 0.193	2.761 ± 0.074	2.375 ± 0.063	2.154 ± 0.057	1.928 ± 0.051

CCC(=O)O + C1CCCCC1
303.15 K, 101 kPa
Settings	viscosity [mPa·s]
x2 = 0.1973	0.8074 ± 0.0096
x2 = 0.286	0.771 ± 0.0092
x2 = 0.384	0.7319 ± 0.0087
x2 = 0.4987	0.7121 ± 0.0085
x2 = 0.5994	0.7197 ± 0.0086
x2 = 0.6998	0.7155 ± 0.0085
x2 = 0.8991	0.7582 ± 0.009

Nc1cccc(Cl)c1 + CCCCOCCO
303.15 K, 101 kPa
Settings	viscosity [mPa·s]
x1 = 0.1347	2.958 ± 0.75
x1 = 0.2158	3.022 ± 0.77
x1 = 0.3353	3.099 ± 0.79
x1 = 0.4394	3.15 ± 0.8
x1 = 0.5555	3.192 ± 0.81
x1 = 0.6554	3.214 ± 0.82
x1 = 0.7157	3.226 ± 0.82
x1 = 0.8263	3.239 ± 0.82
x1 = 0.912	3.242 ± 0.83

[Cs+].[I-] + O
310.15 K, 101 kPa
Settings	viscosity [mPa·s]
x1 = 0.000182	0.6958 ± 0.0061
x1 = 0.000913	0.6971 ± 0.0062
x1 = 0.001829	0.6934 ± 0.0062
x1 = 0.002695	0.6844 ± 0.0062
x1 = 0.003679	0.6676 ± 0.0062
x1 = 0.005197	0.6281 ± 0.006
x1 = 0.005988	0.6009 ± 0.0058

Nc1cccc(Cl)c1 + CCCCCCCO
viscosity [mPa·s], 101 kPa
Settings	x1 = 0.1306	x1 = 0.2526	x1 = 0.3669	x1 = 0.4741	x1 = 0.5749	x1 = 0.6698	x1 = 0.7593	x1 = 0.844	x1 = 0.9241
303.15 K	4.923 ± 0.22	4.794 ± 0.21	4.684 ± 0.21	4.589 ± 0.2	4.509 ± 0.2	4.442 ± 0.2	4.385 ± 0.19	4.336 ± 0.19	4.292 ± 0.19
308.15 K	4.229 ± 0.19	4.143 ± 0.18	4.072 ± 0.18	4.014 ± 0.18	3.966 ± 0.18	3.927 ± 0.17	3.895 ± 0.17	3.869 ± 0.17	3.853 ± 0.17
313.15 K	3.647 ± 0.16	3.585 ± 0.16	3.538 ± 0.16	3.501 ± 0.16	3.473 ± 0.15	3.451 ± 0.15	3.438 ± 0.15	3.433 ± 0.15	3.432 ± 0.15
318.15 K	3.346 ± 0.15	3.269 ± 0.15	3.207 ± 0.14	3.156 ± 0.14	3.114 ± 0.14	3.079 ± 0.14	3.051 ± 0.14	3.032 ± 0.14	3.023 ± 0.14

CCC(=O)O + C[N+](C)(C)CCO.[Cl-]
101 kPa, x2 = 0.333
Settings	viscosity [mPa·s]
293.15 K	70.98 ± 1.5
298.15 K	55.91 ± 1.2
303.15 K	44.79 ± 0.94
308.15 K	36.45 ± 0.76
313.15 K	30.06 ± 0.63
318.15 K	25.09 ± 0.52
323.15 K	21.19 ± 0.44

Cc1ccccc1Cl + CCCCCC
viscosity [mPa·s], 100 kPa
Settings	298.15 K	308.15 K	318.15 K
x1 = 0.0629	0.341 ± 0.021	0.315 ± 0.019	0.292 ± 0.018
x1 = 0.1435	0.369 ± 0.022	0.338 ± 0.02	0.313 ± 0.019
x1 = 0.2364	0.398 ± 0.024	0.37 ± 0.022	0.343 ± 0.021
x1 = 0.3403	0.436 ± 0.026	0.401 ± 0.024	0.37 ± 0.022
x1 = 0.4252	0.477 ± 0.029	0.437 ± 0.026	0.401 ± 0.024
x1 = 0.4608	0.499 ± 0.03	0.451 ± 0.027	0.414 ± 0.025
x1 = 0.5249	0.54 ± 0.033	0.485 ± 0.029	0.445 ± 0.027
x1 = 0.5742	0.574 ± 0.035	0.515 ± 0.031	0.471 ± 0.028
x1 = 0.6237	0.611 ± 0.037	0.546 ± 0.033	0.496 ± 0.03
x1 = 0.6816	0.657 ± 0.04	0.585 ± 0.035	0.531 ± 0.032
x1 = 0.7398	0.705 ± 0.043	0.624 ± 0.038	0.565 ± 0.034
x1 = 0.8335	0.785 ± 0.047	0.7 ± 0.042	0.63 ± 0.038
x1 = 0.9276	0.889 ± 0.054	0.789 ± 0.048	0.706 ± 0.043

Nc1cccc(Cl)c1 + CC(=O)c1ccccc1
viscosity [mPa·s], 100 kPa
Settings	x1 = 0.0807	x1 = 0.1719	x1 = 0.2629	x1 = 0.3608	x1 = 0.4656	x1 = 0.5646	x1 = 0.6658	x1 = 0.7765	x1 = 0.8859
303.15 K	1.647 ± 0.1	1.812 ± 0.1	1.993 ± 0.1	2.206 ± 0.1	2.459 ± 0.1	2.723 ± 0.1	3.022 ± 0.1	3.386 ± 0.1	3.788 ± 0.1
308.15 K	1.538 ± 0.1	1.688 ± 0.1	1.85 ± 0.1	2.041 ± 0.1	2.266 ± 0.1	2.5 ± 0.1	2.764 ± 0.1	3.084 ± 0.1	3.436 ± 0.1
313.15 K	1.38 ± 0.1	1.515 ± 0.1	1.66 ± 0.1	1.83 ± 0.1	2.031 ± 0.1	2.239 ± 0.1	2.474 ± 0.1	2.758 ± 0.1	3.069 ± 0.1
318.15 K	1.218 ± 0.1	1.337 ± 0.1	1.466 ± 0.1	1.616 ± 0.1	1.793 ± 0.1	1.976 ± 0.1	2.183 ± 0.1	2.433 ± 0.1	2.707 ± 0.1

— the CheMixHub viscosity set
